Measured values taken from PMC12121626, “Synthesis, characterization and biological activity of methotrexate-derived salts in lung cancer cells” (RSC Medicinal Chemistry, 2025).
Converted amounts (≈) assume the structure as drawn. Read-outs that look alike come from different tables or passages of the source.

Columns and labels:
[1] = system: normal primary human dermal fibroblast; assay: Cytotoxic effect in normal cells, Cell Titer 96 Aqueous One cell proliferation assay, fibroblasts; assay type: cell-based; details: 48 h of incubation
Procedure: (§1) Primary dermal neonatal fibroblasts (PCS-201-010) and lung adenocarcinoma cell lines (A549 and H1975) were acquired from ATCC (Manassas, VA, USA). […] All experiments were conducted at 37 °C, 5% (v/v) CO2, and 99% humidity in the dark. For simplicity, the supplemented media will be referred from now on as DMEM. NSCLC cell lines used in this work represent two different cancer models with different driver mutations[27] (Table 1). […] Doxorubicin (1.5 μM) was used as a positive control and 0.1% (v/v) DMSO was used as a vector control in all biological replicates. After 48 h of incubation, cell viability was measured using the Cell Titer 96® Aqueous One solution cell proliferation assay (Promega, Madison, WI, USA) according to the manufacturer's instructions and procedures described previously.[26,28] The absorbance of the formazan produced was quantified with a Tecan microplate reader (Infinite M200 (Tecan, Mannedorf, Switzerland)) and analysis of the dose–response curves to determine the relative IC50 was performed with GraphPad Prism 8 software (GraphPad Software, La Jolla, CA, USA). The selectivity index (IC50 fibroblasts/IC50 lung cancer cell line) was used as a measurement of the specificity of MTX salts for lung cancer cells.

[2] = system: A549; assay: Antiproliferative activity, Cell Titer 96 Aqueous One cell proliferation assay, A549; assay type: cell-based, human; details: for IC50: A549, 48 h of incubation; for SI (A549): selectivity index, IC50 fibroblasts/IC50 A549
Procedure: as §1

[3] = Solubility in water, visually determined
Procedure: To study the solubility and stability of the MTX salts, two different assays were performed. To measure the solubility, 1 μL of water was added dropwise to 1 mg of MTX salt and the solubility was visually determined.

[4] = system: H1975; assay: Antiproliferative activity, Cell Titer 96 Aqueous One cell proliferation assay, H1975; assay type: cell-based, human; details: for IC50: H1975, 48 h of incubation; for SI (H1975): selectivity index, IC50 fibroblasts/IC50 H1975
Procedure: as §1

[5] = system: A549 cells; assay: Evaluation of apoptosis, annexin V/PI double staining, flow cytometry; assay type: cell-based, human; details: A549, 48 h of exposure to IC50 (DOX 1.5 μM)
Procedure: A549 cells were seeded on 6-well plates at a density of 2 × 10^5 cells per well and incubated for 48 h with the IC50 of salts ([C12mim]2[MTX], [C10mim]2[MTX], and [C10-3-picoline]2[MTX]) previously determined. Doxorubicin (1.5 μM) was used as a positive control and 0.1% (v/v) DMSO as a vector control. Cells were then detached from the wells and double stained using dead cell apoptosis annexin V (Thermo Fisher Scientific) according to the manufacturer's instructions. The percentage of live cells (unstained), cells in initial apoptosis (stained with annexin V-Alexa Fluor 488), cells in late apoptosis (double stained with annexin V-Alexa Fluor 488 and propidium iodide), or cells in necrosis (stained with propidium iodide) were quantified using an Attune acoustic focusing flow cytometer and the respective software (Thermo Fisher Scientific).
Cellular apoptosis is a process that leads to cell death. Using annexin V and propidium iodide (PI), cells could be divided into live cells, early apoptotic cells, late apoptotic cells, or necrotic cells, based on the differences in plasma membrane of these different stages. PI only enters cells with a permeabilized and/or compromised membrane (late apoptotic and necrotic cells, respectively), while annexin V-FITC binds to phosphatidylserine that translocates from the inner side of the plasma membrane to the outer side, staining cells in initial/late apoptosis.[31]

[6] = parameters: method as in PMID 23292116; details: low solubility and low permeability; cited from earlier work
[7] = parameters: method as in doi:10.1016/j.trac.2017.09.009; details: cited from earlier work
[8] = UV-vis spectroscopy stability assay in DMEM biological medium; assay type: physicochemical; details: 48 h period of the biological assays

With `CCCCCCCCCC[n+]1cccc(C)c1.CCCCCCCCCC[n+]1cccc(C)c1.CN(Cc1cnc2nc(N)nc(N)c2n1)c1ccc(C(=O)N[C@@H](CCC(=O)[O-])C(=O)[O-])cc1` [[C10-3-picoline]2[MTX]] the IC50 [1] was 10.6 ± 1.03 µM, the IC50 [2] was 0.94 ± 0.03 µM and the “IC50 in the cancer cell line relative to [Na]2[MTX]” value ([2]; A549, compared to [Na]2[MTX]) was 4.06 fold. For the same compound, the “SI (A549)” value [2] was 11.3, the “Solubility” value ([3]; in water at room temperature) was 138.9 mg/mL and the IC50 [4] was 29.1 ± 1.46 µM. The “SI (H1975)” value [4] was 0.4, the Early apoptosis [5] was 14.9 ± 6.5% and the Late apoptosis [5] was 9.4 ± 5.6%. For the same compound, the Live cells [5] was 75.3 ± 3.0% and the Necrosis [5] was 0.02 ± 0.02%.
For `CN(Cc1cnc2nc(N)nc(N)c2n1)c1ccc(C(=O)N[C@@H](CCC(=O)O)C(=O)O)cc1` [MTX, Methotrexate], the IC50 ([2]; Homo sapiens) is listed as > 50 µM, the Solubility [3] is listed as 0.01 mg/mL (≈ 22 µM) and the “Class in the biopharmaceutical classification system” value [6] is listed as “class IV”. The “pKa (first acidic proton, carboxylic acid)” value [7] was 2.9, the “pKa (second acidic proton, carboxylic acid)” value [7] was 4.6 and the “Stability in DMEM biological medium” value [8] was “stability was retained”.
In the case of `C[n+]1ccn(CCO)c1` [[C2OHmim][Br], reference compound], the IC50 [2] is reported as > 50 µM.
With `CCCCCCCCCC[n+]1cccc(C)c1.[Br-]` [[C10-3-picoline][Br], reference compound] the IC50 [1] was > 50 µM, the IC50 [2] was 1.03 ± 0.01 µM and the “SI (A549)” value [2] was 48.5. It also gave an IC50 [4] of 29.3 ± 1.47 µM.
For `CN(Cc1cnc2nc(N)nc(N)c2n1)c1ccc(C(=O)N[C@@H](CCC(=O)[O-])C(=O)[O-])cc1.[Na+].[Na+]` [[Na]2[MTX]] [reference compound], the IC50 [1] was > 50 µM, the IC50 [2] was 3.82 ± 0.58 µM and the “Solubility” value ([3]; in water at room temperature) was 99.0 mg/mL. For the same compound, the IC50 [4] was > 50 µM.
With `CCn1cc[n+](C)c1` [[C2MIM][Br], reference compound] the IC50 [2] was > 50 µM.
In the case of `CN(Cc1cnc2nc(N)nc(N)c2n1)c1ccc(C(=O)NC(CCC(=O)[O-])C(=O)[O-])cc1.Cn1cc[n+](CCCCCCCCCCCCn2cc[n+](C)c2)c1` (stereo not drawn) [[MIMC12MIM][MTX]], the IC50 [2] is reported as 12.4 ± 1.09 µM.
For `CCCCCCCCCCn1cc[n+](C)c1.[Br-]` [[C10mim][Br], reference compound], the IC50 [1] was > 50 µM, the IC50 [2] was 1.1 ± 0.02 µM and the “SI (A549)” value [2] was 45.5. For the same compound, the IC50 [4] was 19.2 ± 1.28 µM.
For `CCn1cc[n+](C)c1.CCn1cc[n+](C)c1.CN(Cc1cnc2nc(N)nc(N)c2n1)c1ccc(C(=O)NC(CCC(=O)[O-])C(=O)[O-])cc1` (stereo not drawn) [[C2MIM]2[MTX]], the IC50 [2] was > 50 µM and the “Solubility” value ([3]; in water at room temperature) was 500.0 mg/mL.
In the case of `CN(Cc1cnc2nc(N)nc(N)c2n1)c1ccc(C(=O)N[C@@H](CCC(=O)[O-])C(=O)[O-])cc1.C[N+](C)(C)CCO.C[N+](C)(C)CCO` [[Choline]2[MTX]], the IC50 [2] is reported as > 50 µM, the “Increase in solubility in water” value [3] is reported as 10 fold and the “Solubility” value [3] is reported as 1087.0 mg/mL.
`CCCCCCCCCC[N+](C)(C)CCO.CCCCCCCCCC[N+](C)(C)CCO.CN(Cc1cnc2nc(N)nc(N)c2n1)c1ccc(C(=O)N[C@@H](CCC(=O)[O-])C(=O)[O-])cc1` [[N10,1,1,2OH]2[MTX]] gave an IC50 [2] of 19.2 ± 1.28 µM.
`CCCCCCCCCCCC[N+](C)(C)CCO.CCCCCCCCCCCC[N+](C)(C)CCO.CN(Cc1cnc2nc(N)nc(N)c2n1)c1ccc(C(=O)NC(CCC(=O)[O-])C(=O)[O-])cc1` (stereo not drawn) [[N12,1,1,2OH]2[MTX]] showed an IC50 [2] of 8.55 ± 0.93 µM.
Work on `COc1cccc2c1C(=O)c1c(O)c3c(c(O)c1C2=O)C[C@@](O)(C(=O)CO)C[C@@H]3O[C@H]1C[C@H](N)[C@H](O)[C@H](C)O1` [DOX, Doxorubicin, reference compound] yielded an Early apoptosis [5] of 9.3 ± 7.1%, a Late apoptosis [5] of 65.25 ± 30.4% and a Live cells [5] of 1.7 ± 1.8%. For the same compound, the Necrosis [5] was 23.7 ± 26.0%.
For `Cc1ccc[n+](CCO)c1` [[C2OH 3-picoline][Br], reference compound], the IC50 [2] was > 50 µM.
For `CCCCCCCCCCCCn1cc[n+](C)c1.[Br-]` [[C12mim][Br], reference compound], the IC50 [1] was 8.3 ± 0.92 µM, the IC50 [2] was 0.6 ± 0.21 µM and the “SI (A549)” value [2] was 13.83. For the same compound, the IC50 [4] was 10.2 ± 1.01 µM and the “SI (H1975)” value [4] was 0.8.
For `CCCCCCCCCCn1cc[n+](C)c1.CCCCCCCCCCn1cc[n+](C)c1.CN(Cc1cnc2nc(N)nc(N)c2n1)c1ccc(C(=O)N[C@@H](CCC(=O)[O-])C(=O)[O-])cc1` [[C10mim]2[MTX]], the IC50 [1] was 7.61 ± 0.88 µM, the IC50 [2] was 1.71 ± 0.23 µM and the “SI (A549)” value [2] was 4.5. The “Solubility” value ([3]; in water at room temperature) was 312.5 mg/mL, the IC50 [4] was 14.9 ± 1.17 µM and the “SI (H1975)” value [4] was 0.5. It also gave an Early apoptosis [5] of 14.9 ± 5.0%, a Late apoptosis [5] of 10.7 ± 8.1% and a Live cells [5] of 73.2 ± 5.0%. It also gave a Necrosis [5] of 1.1 ± 1.8%.
For `CCCCCCn1cc[n+](C)c1.CCCCCCn1cc[n+](C)c1.CN(Cc1cnc2nc(N)nc(N)c2n1)c1ccc(C(=O)NC(CCC(=O)[O-])C(=O)[O-])cc1` (stereo not drawn) [[C6mim]2[MTX]], the IC50 [2] was > 50 µM.
With `CCCCCCCCn1cc[n+](C)c1.CCCCCCCCn1cc[n+](C)c1.CN(Cc1cnc2nc(N)nc(N)c2n1)c1ccc(C(=O)NC(CCC(=O)[O-])C(=O)[O-])cc1` (stereo not drawn) [[C8mim]2[MTX]] the IC50 [2] was > 50 µM.
In the case of `C[N+](C)(C)CCO.[Cl-]` [[Choline][Cl], reference compound], the IC50 [2] is reported as > 50 µM.
For `CN(Cc1cnc2nc(N)nc(N)c2n1)c1ccc(C(=O)NC(CCC(=O)[O-])C(=O)[O-])cc1.C[n+]1ccn(CCO)c1.C[n+]1ccn(CCO)c1` (stereo not drawn) [[C2OHmim]2[MTX]], the IC50 [2] was > 50 µM and the “Solubility” value ([3]; in water at room temperature) was 476.2 mg/mL.
With `CCCCCCCCCCCCn1cc[n+](C)c1.CCCCCCCCCCCCn1cc[n+](C)c1.CN(Cc1cnc2nc(N)nc(N)c2n1)c1ccc(C(=O)N[C@@H](CCC(=O)[O-])C(=O)[O-])cc1` [[C12mim]2[MTX]] the IC50 [2] was 0.55 ± 0.25 µM, the “SI (A549)” value [2] was 2.9 and the “Solubility” value ([3]; in water at room temperature) was 238.1 mg/mL. The IC50 [4] was 2.72 ± 0.43 µM, the “SI (H1975)” value [4] was 0.6 and the Early apoptosis [5] was 16.7 ± 7.3%. For the same compound, the Late apoptosis [5] was 10.2 ± 8.3%, the Live cells [5] was 72.9 ± 4.1% and the Necrosis [5] was 0.1 ± 0.2%.
For `CN(Cc1cnc2nc(N)nc(N)c2n1)c1ccc(C(=O)N[C@@H](CCC(=O)[O-])C(=O)[O-])cc1.Cc1ccc[n+](CCO)c1.Cc1ccc[n+](CCO)c1` [[C2OH-3-picoline]2[MTX]], the IC50 [2] was > 50 µM and the “Solubility” value ([3]; in water at room temperature) was 192.3 mg/mL.
